Assay results as given in US7732457B2, “Amino-pyridines as inhibitors of β-secretase” (Wyeth LLC, priority 2005, dated 2010).

Assays:
human BACE1 = human BACE1 (Homo sapiens, UniProt P56817); assay: BACE-1 fluorescent kinetic assay (cleavage of peptide substrate WABC-6); format: biochemical; settings: 10 nM enzyme, 25 μM substrate WABC-6, Na-Acetate pH 4.5, room temperature
Experimental: Evaluation of BACE-1 Binding Affinity of Test Compounds
Fluorescent Kinetic Assay
Dilution and mixing steps: total reaction volume: 100 μL
100 μM substrate dilution in 1×PBS was prepared, and
Fluorescence Readings: Readings at λex 320 nm and λem 420 nm are taken every 40 sec for 30 min at room temperature and the linear slope for substrate cleavage rate (vi) determined.

Sequence of human BACE1 (P56817 46-501): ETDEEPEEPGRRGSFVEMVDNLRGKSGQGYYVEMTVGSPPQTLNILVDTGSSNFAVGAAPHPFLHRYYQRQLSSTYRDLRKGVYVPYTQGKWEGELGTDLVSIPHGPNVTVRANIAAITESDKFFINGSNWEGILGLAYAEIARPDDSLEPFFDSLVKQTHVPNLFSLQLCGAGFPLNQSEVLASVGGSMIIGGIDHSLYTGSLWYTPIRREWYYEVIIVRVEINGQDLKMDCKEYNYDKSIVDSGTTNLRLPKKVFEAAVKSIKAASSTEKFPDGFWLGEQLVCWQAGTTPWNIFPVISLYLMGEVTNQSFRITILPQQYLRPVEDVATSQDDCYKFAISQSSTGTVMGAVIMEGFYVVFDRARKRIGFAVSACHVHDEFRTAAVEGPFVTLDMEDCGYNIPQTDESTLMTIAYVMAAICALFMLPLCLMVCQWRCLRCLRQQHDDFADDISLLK

BACE 1 IC50 μM (human BACE1)	melting point [°C]	IC50 (human BACE1) [µM]	SMILES
D (D = >5.0 μM-0.10 = μM)	108 to 118	–	Cc1cccc(C(=O)Nc2ccc(-c3ccc(-c4ccccc4Cl)n3Cc3cccc(N)n3)cc2)c1 [Example 1, N-{4-[1-(6-Amino-pyridin-2-ylmethyl)-5-(2-chloro-phenyl)-1H-pyrrol-2-yl]-phenyl}-3-methyl-benzamide]
–	163 to 166	0.11 to 1	Nc1cccc(Cn2c(-c3ccc(-c4cccnc4)cc3)ccc2-c2ccccc2Cl)n1 [Example 28]
D (D = >5.0 μM-0.10 = μM)	98 to 99	–	Nc1cccc(Cn2c(-c3ccccc3)ccc2-c2ccc(C(=O)NCC3CCCO3)cc2)n1 (stereo not drawn) [Example 66, 4-{1-[(6-aminopyridin-2-yl)methyl]-5-phenyl-1H-pyrrol-2-yl}-N-(tetrahydrofuran-2-ylmethyl)benzamide]
